Experimental findings from PMC4674339 (European journal of medicinal chemistry, 2015) are described below.

Structures are written as SMILES. Entries after “also recorded” stand apart in the source; their conditions may differ. Where two headings read alike, the source gives them in different places. Some results are limits rather than exact numbers.

The test system of experiment [1] is ADP induced human platelet aggregation. As to the kind of experiment: ADP-induced human platelet aggregation, 96-well microplate method. In kind it is cell-based.
The next experiment concerns the target T1, platelet P2X1 receptors (Homo sapiens, UniProt P51575).
T1 sequence (P51575 1-399): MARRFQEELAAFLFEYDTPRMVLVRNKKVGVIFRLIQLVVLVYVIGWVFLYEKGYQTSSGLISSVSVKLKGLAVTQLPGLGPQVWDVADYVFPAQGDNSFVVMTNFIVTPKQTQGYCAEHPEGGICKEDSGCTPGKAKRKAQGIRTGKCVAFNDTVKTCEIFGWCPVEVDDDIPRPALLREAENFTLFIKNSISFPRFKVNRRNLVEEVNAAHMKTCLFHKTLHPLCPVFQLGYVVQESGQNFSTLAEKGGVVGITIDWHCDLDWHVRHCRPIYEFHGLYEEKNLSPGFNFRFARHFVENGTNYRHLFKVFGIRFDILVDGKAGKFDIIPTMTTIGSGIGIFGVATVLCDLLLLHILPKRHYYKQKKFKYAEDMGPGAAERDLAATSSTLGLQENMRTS
The experiment can be described thus: P2X1-mediated entry of extracellular Ca2+. The class given is cell-based.

Experiment [2] relates to ADP induced human platelet aggregation. The experiment can be described thus: ADP induced human platelet aggregation by optical aggregometry. The class given is cell-based. Conditions: 25 and 100 nM; pre-incubation 0, 5, 15 min; data not shown.
In experiment [3] the test system is GPIIb-IIIa and P-selectin on the surface of human platelets. The experiment can be described thus: Reversibility of inhibition of activation marker expression after dilution. In kind it is cell-based. As to conditions: 30 min with 10 nM, then 100x dilution with platelet poor plasma; 20 μM ADP.
In a further experiment the target is human P2Y2 receptors (Homo sapiens, UniProt P41231). The experiment can be described thus: Effect on human P2Y2 receptors. As to conditions: data not shown.
human P2Y2 receptors, sequence (P41231 whole entry): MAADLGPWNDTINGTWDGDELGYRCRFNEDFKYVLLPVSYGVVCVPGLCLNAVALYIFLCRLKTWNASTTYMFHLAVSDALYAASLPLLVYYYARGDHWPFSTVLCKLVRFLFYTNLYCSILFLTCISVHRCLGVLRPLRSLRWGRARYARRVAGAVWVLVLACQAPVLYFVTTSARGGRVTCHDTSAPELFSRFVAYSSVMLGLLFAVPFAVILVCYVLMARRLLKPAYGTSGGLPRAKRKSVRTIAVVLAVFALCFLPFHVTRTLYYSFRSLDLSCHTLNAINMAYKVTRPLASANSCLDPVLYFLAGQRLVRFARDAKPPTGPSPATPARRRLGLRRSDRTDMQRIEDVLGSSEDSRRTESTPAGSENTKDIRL
The target in another experiment is human P2Y4 receptors (Homo sapiens, UniProt P51582). As to the kind of experiment: Effect on human P2Y4 receptors. As to conditions: data not shown.
human P2Y4 receptors, sequence (P51582 whole entry): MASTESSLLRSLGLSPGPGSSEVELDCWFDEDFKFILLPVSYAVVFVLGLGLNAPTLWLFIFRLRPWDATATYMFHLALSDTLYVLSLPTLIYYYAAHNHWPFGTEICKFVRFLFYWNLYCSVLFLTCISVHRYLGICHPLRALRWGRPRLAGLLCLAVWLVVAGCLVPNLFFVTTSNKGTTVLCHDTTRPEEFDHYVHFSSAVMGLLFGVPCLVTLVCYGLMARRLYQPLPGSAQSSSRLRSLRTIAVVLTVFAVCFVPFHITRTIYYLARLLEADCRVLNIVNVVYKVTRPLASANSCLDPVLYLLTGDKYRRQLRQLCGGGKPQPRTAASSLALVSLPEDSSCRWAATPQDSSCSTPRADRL
In another experiment the target is human P2Y6 receptors (Homo sapiens, UniProt Q15077). The experiment can be described thus: Effect on human P2Y6 receptors. Conditions: data not shown.
human P2Y6 receptors, sequence (Q15077 whole entry): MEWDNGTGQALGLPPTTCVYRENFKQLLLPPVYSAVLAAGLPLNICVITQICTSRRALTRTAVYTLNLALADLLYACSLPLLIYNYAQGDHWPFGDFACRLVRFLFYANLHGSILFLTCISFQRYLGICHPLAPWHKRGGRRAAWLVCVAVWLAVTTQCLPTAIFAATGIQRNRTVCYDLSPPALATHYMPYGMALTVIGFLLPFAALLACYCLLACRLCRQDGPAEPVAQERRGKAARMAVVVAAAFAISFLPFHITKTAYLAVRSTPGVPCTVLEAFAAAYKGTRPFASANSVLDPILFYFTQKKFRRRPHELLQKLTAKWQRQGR
In experiment [4] the target is human platelet P2Y1 receptors (Homo sapiens, UniProt P47900). Conditions: 3 μM ADP; human whole blood; N=3 unless stated.
human platelet P2Y1 receptors, sequence (P47900 whole entry): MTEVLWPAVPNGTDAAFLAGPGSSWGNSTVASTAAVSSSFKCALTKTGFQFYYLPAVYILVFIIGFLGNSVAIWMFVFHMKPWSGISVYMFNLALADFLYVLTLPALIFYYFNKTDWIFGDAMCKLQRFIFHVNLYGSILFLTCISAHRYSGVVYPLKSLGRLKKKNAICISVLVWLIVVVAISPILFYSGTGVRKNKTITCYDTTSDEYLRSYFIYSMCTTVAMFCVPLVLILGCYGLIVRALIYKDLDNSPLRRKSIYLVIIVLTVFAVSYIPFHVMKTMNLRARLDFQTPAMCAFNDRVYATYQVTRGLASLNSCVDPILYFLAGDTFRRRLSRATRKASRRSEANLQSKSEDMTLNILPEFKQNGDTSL

As for `CSc1nc(N)c2ncn([C@@H]3O[C@H](COP(=O)([S-])OP(=O)([O-])C(Cl)P(=O)([O-])OP(=O)([S-])OC[C@H]4O[C@@H](n5cnc6c(N)nc(SC)nc65)[C@H](O)[C@@H]4O)[C@@H](O)[C@H]3O)c2n1.[Na+].[Na+].[Na+].[Na+]` (mixture of isomers) [Compound 5, P^1,P^4-di-(2-methylthio-5′-adenosine) P^1,P^4-dithio-P^2,P^3-chloromethylenetetraphosphate], the IC50 in experiment [1] (read-out: IC50, nM (95% Confidence Interval), no pre-incubation, 3 μM ADP) is 36.1 nM; in experiment [1] (read-out: IC50, nM (95% Confidence Interval), pre-incubation with test compound, 5 μM ADP), 11.6 nM; in experiment [1] (read-out: IC50, nM (95% Confidence Interval), pre-incubation with test compound, 20 μM ADP), 27.6 nM. The “P2X1 agonist activity” value at platelet P2X1 receptors is on record as “practically devoid of agonist activity; also recorded: did not have an effect”. The “Pre-incubation time for full pre-incubation effect” value in experiment [2] is not above 15 min. Besides, the “Recovery of ability to express the activation markers after dilution” value in experiment [3] is on record as 80–90%. Besides, the “Effect on human P2Y2 receptors” value at human P2Y2 receptors is reported as “did not have an effect”. In addition, on human P2Y4 receptors, the “Effect on human P2Y4 receptors” value is “did not have an effect”. Moreover, the “Effect on human P2Y6 receptors” value at human P2Y6 receptors is reported as “did not have an effect”.

Consider `CSCCNc1nc(SCCC(F)(F)F)nc2c1ncn2[C@@H]1O[C@H](COP(=O)(O)OP(=O)(O)C(Cl)(Cl)P(=O)(O)O)[C@@H](O)[C@H]1O` [Cangrelor], for which the “P2Y1 inhibition IC50±SEM” value in experiment [4] was “Not inhibitor”.
